Measured values from patent publication EP1000062B1, “TRICYCLIC VASOPRESSIN AGONISTS” (Wyeth, priority 1997, dated 1999).

Tested on: Vasopressin V2
Experiment: Vasopressin V2 agonist effects of test compounds in normal conscious water-loaded rats
Type: in vivo
Conditions: Sprague-Dawley (CD) rats, oral 10 mg/kg, urine collected for four hours; for Osmolality (% Increase): change in osmolality as percent of control; for Urine Volume (% decrease): vs. control
Method: Vasopressin V2 Agonist Effects of Test Compounds in Normal Conscious Water-Loaded Rats:
On the day of test, rats were placed individually into metabolic cages equipped with devices to separate the feces from the urine and containers for collection of urine. Test compound or reference agent was given at an oral dose of 10 mg/kg in a volume of 10 ml /kg. […] Thirty minutes after dosing the test compound, rats were gavaged with water at 30 ml /kg into the stomach using a feeding needle. During the test, rats were not provided with water or food. Urine was collected for four hours after dosing of the test compound. At the end of four hours, urine volume was measured. […] Determinations of Na^+, K^+ and Cl^- ion were carried out using ion specific electrodes in a Beckman SYNCHRON EL-ISE Electrolyte System analyzer. […] In the screening test, two rats were used for each compound. If the difference in the urine volume of the two rats was greater than 50%, a third rat was used.

| Structure (SMILES) | Osmolality (% Increase) [%] | Urine Volume (% decrease) [%] |
| --- | --- | --- |
| Cc1nc(-c2ccc(C(=O)N3Cc4cccn4Cc4ccccc43)c(Cl)c2)n(C)n1 [Example 85, 4-[(2,5-Dimethyl-2H-[1,2,4]triazol-3-yl)-2-chloro-phenyl]-(5H,11H-pyrrolo[2,1-c][1,4]benzodiazepin-10-carbonyl)-methanone] | 436 | 76 |
| O=C(c1ccc(-c2nnn[nH]2)cc1Cl)N1Cc2cccn2Cc2ccccc21 [Example 86, [2-Chloro-4-(1H-tetrazol-5-yl)-phenyl]-(5H,11H-pyrrolo[2,1-c][1,4]benzodiazepin-10-yl)-methanone] | 86 | 5 |
| Cc1ccn(-c2ccc(C(=O)N3Cc4ccc(CN(C)C)n4Cc4ccccc43)c(Cl)c2)n1 [Example 87, [2-Chloro-4-(3-methyl-pyrazol-1-yl)-phenyl]-(3-dimethylaminomethyl-5H,11H-pyrrolo[2,1-c][1,4]benzodiazepin-10-yl)-methanone] | 214 | 71 |
| Cc1ccn(-c2ccc(C(=O)N3Cc4ccc(Br)n4Cc4ccccc43)c(Cl)c2)n1 [Example 88, (3-Bromo-5H,11H-pyrrolo[2,1-c][1,4]benzodiazepin-10-yl)-[2-chloro-4-(3-methyl-pyrazol-1-yl)-phenyl]-methanone] | 226 | 68 |
| Cc1ccn(-c2ccc(C(=O)N3Cc4cccn4Cc4ccccc43)c(Br)c2)n1 [Example 90] | 413 | 61 |
| O=C(c1ccc(F)cc1F)N1Cc2cccn2Cc2ccccc21 [Example 91, (2,4-Difluoro-phenyl)-(5H,11H-pyrrolo[2,1-c][1,4]benzodiazepin-10-yl)-methanone] | 69 | 22 |
| Cc1ccn(-c2ccc(C(=O)N3Cc4cccn4Cc4ccccc43)c(F)c2)n1 [Example 92, [2-Fluoro-4-(3-methyl-pyrazol-1-yl)-phenyl]-(5H,11H-pyrrolo[2,1-c][1,4]-benzodiazepin-10-yl)-methanone] | 454 | 69 |
| Cc1ccn(-c2ccc(C(=O)N3Cc4ccnn4Cc4ccccc43)c(C(F)(F)F)c2)n1 [Example 95, [4-(3-Methylpyrazol-1-yl)-2-trifluoromethylphenyl]-[5H,11H-pyrazolo[5,1-c]-[1,4]benzodiazepin-10-yl)-methanone] | 300 | 68 |
| Cc1ccn(-c2ccc(C(=O)O)c(Cl)c2)n1 [Example 97, 2-Chloro-4-(3-methyl-1H-pyrazol-1-yl)-benzoic acid] | 106 | 3 |
| O=C(c1ccc(-n2cccn2)nc1Cl)N1Cc2cccn2Cc2ccccc21 [Example 99, (2-Chloro-6-pyrazol-1-yl-pyridin-3-yl)-(5H,11H-pyrrolo[2,1-c][1,4]benzodiazepin-10-yl)-methanone] | 205 | 43 |
| Cc1ccn(-c2ccc(C(=O)N3Cc4cccn4Cc4ccccc43)c(Cl)n2)n1 [Example 100, [2-Chloro-6-(3-methylpyrazol-1-yl)-pyridin-3-yl]-(5H,11H-pyrrolo[2,1-c] [1,4]benzodiazepin-10-yl)-methanone] | 248 | 24 |
| Cc1cnn(-c2ccc(C(=O)N3Cc4cccn4Cc4ccccc43)c(Cl)n2)c1 [Example 101, [2-Chloro-6-(4-methylpyrazol-1-yl)-pyridin-3-yl](5H,11H-pyrrolo[2,1-c] [1,4]benzodiazepin-10-yl)-methanone] | 376 | 76 |
